# Experimental data: PMC5486812, “Characterisation of three fungal glucuronoyl esterases on glucuronic acid ester model compounds” (Applied Microbiology and Biotechnology, 2017)
# Molecular target: T1, StGE2 (Thermothelomyces thermophilus, UniProt G2QJR6)
# T1 construct: gene ge2; produced in a P. pastoris strain from the OPTIBIOCAT consortium; construct not described
# T1 sequence (G2QJR6 19-397): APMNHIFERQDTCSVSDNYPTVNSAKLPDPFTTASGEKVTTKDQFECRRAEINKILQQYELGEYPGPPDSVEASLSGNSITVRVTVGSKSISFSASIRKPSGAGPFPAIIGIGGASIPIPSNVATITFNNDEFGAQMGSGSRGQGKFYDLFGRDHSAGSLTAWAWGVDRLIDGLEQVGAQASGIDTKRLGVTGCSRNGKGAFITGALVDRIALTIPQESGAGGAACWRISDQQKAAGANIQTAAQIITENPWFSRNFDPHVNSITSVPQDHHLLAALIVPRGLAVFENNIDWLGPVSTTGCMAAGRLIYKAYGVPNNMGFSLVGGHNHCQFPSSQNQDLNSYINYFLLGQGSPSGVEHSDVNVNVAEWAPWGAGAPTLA
# Experiment: coupled spectrophotometric GlcA release (K-URONIC kit), relative activity
# Format: biochemical
# Conditions: 2 mM substrate, pH 6.0, 35 °C, 30 min; purification of StGE2 not described
structure (smiles),measurement,value
O=C(OCc1ccccc1)[C@H]1OC(O)[C@H](O)[C@@H](O)[C@@H]1O (stereo partly shown) [BnGlcA],"coupled spectrophotometric GlcA release (K-URONIC kit), relative activity",enzyme action on BnGlcA produced the highest amount of hydrolysed glucuronic acid
